Assay results: patent publication US10919877B2, “Multifunctional inhibitors of MEK/PI3K and mTOR/MEK/PI3K biological pathways and therapeutic methods using the same” (THE REGENTS OF THE UNIVERSITY OF MICHIGAN, priority 2016, dated 2021)
Entries after “also recorded” stand apart in the source; their conditions may differ. Read-outs that look alike come from different tables or passages of the source.

How the values were obtained:
PI3Kγ [1] = molecular target: T1, PI3Kγ (Homo sapiens, UniProt P48736); details: second value in parentheses, unexplained; cited from earlier work
T1 construct: purchased Life Technologies (assay run by the vendor)
T1 sequence (P48736 whole entry): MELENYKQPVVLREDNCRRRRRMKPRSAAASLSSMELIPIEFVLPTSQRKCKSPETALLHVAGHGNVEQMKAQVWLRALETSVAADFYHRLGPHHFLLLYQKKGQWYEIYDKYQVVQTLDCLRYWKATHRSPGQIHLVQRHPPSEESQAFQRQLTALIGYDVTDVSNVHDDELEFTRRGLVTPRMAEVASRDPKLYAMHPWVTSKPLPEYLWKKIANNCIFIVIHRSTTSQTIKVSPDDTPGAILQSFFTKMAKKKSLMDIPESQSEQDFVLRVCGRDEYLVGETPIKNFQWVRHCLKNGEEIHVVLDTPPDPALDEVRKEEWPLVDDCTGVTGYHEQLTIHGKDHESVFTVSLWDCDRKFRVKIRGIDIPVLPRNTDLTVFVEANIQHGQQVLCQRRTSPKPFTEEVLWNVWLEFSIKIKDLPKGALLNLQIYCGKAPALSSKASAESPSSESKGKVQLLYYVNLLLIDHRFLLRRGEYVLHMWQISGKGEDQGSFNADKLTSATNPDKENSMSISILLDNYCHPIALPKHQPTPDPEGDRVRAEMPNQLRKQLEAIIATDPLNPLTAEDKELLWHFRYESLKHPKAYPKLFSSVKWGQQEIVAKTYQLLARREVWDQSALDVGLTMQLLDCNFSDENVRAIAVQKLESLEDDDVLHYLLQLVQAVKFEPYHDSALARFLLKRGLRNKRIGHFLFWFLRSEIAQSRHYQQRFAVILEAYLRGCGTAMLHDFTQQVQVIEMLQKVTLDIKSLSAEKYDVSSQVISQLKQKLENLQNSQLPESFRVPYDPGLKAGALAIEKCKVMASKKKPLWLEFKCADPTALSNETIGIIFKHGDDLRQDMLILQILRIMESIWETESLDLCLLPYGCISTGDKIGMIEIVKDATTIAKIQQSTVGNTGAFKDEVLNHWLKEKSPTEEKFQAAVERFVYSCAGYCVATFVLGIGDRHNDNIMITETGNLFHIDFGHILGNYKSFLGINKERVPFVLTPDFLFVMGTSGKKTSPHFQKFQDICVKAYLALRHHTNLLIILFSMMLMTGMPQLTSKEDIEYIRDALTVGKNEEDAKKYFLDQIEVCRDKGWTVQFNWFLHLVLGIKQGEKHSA

PI3Kγ [2] = molecular target: T1, PI3Kγ; assay: PI3K subtype enzyme inhibition; assay type: biochemical
[3] = test system: pAkt in A549 and D54 cells; assay: Cellular PI3K inhibition, Western blot of pAkt in cultured tumor cells; assay type: cell-based, human; details: 1 hour
Description: The in vitro MEK1 and PI3K inhibitory activity of these series of compounds was also assessed in cultured tumor cells (D54, A549). Cellular efficacy of MEK1 and PI3K inhibition by inhibitor compounds was measured by changes in phosphorylation of pErk1/2 and pAkt, respectively. […] Cells were incubated in the presence of indicated compounds for 1 hour and lysates probed with specific antibodies against pAKT and pERK 1/2 and compared with vehicle control (DMSO). A549 (FIG. 2A) and D54 (FIG. 2B) cells were treated with inhibitors at the indicated concentrations for 1 hour and subjected to Western blot analysis.
Western Blot Analysis. Cells were seeded in six-well dishes 24 hours prior to treatment and incubated with the respective inhibitor compound solutions for 1 h. Cells were washed with phosphatebuffered saline (PBS) and lysed with NP-40 lysis buffer (1% NP40, 150 mM NaCl, and 25 mM Tris, pH 8.0) supplemented with protease inhibitors (Complete protease inhibitor cocktail, Roche, Basel, Switzerland) and phosphatase inhibitors (PhosSTOP, Roche, Basel, Switzerland). Concentration of protein was determined using Lowry assays (Bio-Rad, Hercules, Calif.), and equal amounts of whole cell protein lysate were loaded in each lane and resolved using 4-12% gradient Bis-Tris gel (Invitrogen, CA). Proteins were transferred to 0.2 μm nitrocellulose membranes (Invitrogen, CA). Membranes were incubated overnight at 4° C. with primary antibodies after blocking, followed by incubation with appropriate horseradish peroxidase (HRP) conjugated secondary antibody at room temperature for 1 hour. ECL-Plus was used to detect the activity of peroxidase according to the manufacturer's protocol (Amersham Pharmacia, Uppsala, Sweden). Antibodies raised against phospho-p44/42 MAPK (Erk1/2) (Thr202/Tyr204), pAKT(5473), phospho-p70 S6K* and total ERK, AKT antibodies were purchased from Cell Signaling Technology (Beverly, Mass., USA), and anti-β actin (conjugated with HRP) was purchased from Abcam (Cambridge, Mass., USA). Secondary HRP antibodies were purchased from Jackson ImmunoResearch (St. Louis, Mo., USA).

Akt phosphorylation = assay: In vivo PI3K inhibition in flank D54 and A549 tumor bearing mice (Western blot)
PI3Kβ = molecular target: T2, PI3Kβ (Homo sapiens, UniProt P42338); assay: PI3K subtype enzyme inhibition; assay type: biochemical
T2 construct: purchased Life Technologies (assay run by the vendor)
T2 sequence (P42338 whole entry): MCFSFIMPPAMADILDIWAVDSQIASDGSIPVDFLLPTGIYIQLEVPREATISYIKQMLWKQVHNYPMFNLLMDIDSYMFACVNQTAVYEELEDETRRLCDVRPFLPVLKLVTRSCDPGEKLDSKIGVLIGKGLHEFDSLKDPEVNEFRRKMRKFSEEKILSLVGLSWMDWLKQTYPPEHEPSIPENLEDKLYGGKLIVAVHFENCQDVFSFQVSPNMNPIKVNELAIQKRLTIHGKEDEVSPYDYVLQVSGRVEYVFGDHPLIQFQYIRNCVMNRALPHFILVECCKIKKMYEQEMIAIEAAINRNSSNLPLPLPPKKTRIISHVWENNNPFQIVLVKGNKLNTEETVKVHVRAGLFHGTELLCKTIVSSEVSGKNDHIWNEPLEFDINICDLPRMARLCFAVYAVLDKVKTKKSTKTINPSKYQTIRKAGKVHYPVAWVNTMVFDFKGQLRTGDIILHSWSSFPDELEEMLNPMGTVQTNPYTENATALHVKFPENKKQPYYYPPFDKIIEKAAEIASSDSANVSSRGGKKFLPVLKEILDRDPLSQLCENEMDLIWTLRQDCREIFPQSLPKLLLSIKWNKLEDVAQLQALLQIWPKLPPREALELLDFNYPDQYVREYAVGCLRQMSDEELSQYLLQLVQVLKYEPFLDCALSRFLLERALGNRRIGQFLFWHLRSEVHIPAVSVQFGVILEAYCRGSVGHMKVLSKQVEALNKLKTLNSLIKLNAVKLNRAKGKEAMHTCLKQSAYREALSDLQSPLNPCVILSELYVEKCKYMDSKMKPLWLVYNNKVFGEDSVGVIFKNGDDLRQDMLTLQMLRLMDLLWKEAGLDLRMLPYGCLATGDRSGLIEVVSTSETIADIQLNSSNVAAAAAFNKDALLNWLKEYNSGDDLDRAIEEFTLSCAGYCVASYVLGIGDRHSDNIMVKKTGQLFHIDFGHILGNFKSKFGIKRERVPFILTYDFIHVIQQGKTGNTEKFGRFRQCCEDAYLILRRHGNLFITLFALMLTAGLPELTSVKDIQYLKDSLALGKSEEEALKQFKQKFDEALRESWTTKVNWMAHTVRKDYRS
T2 sequence (P27986 whole entry partner): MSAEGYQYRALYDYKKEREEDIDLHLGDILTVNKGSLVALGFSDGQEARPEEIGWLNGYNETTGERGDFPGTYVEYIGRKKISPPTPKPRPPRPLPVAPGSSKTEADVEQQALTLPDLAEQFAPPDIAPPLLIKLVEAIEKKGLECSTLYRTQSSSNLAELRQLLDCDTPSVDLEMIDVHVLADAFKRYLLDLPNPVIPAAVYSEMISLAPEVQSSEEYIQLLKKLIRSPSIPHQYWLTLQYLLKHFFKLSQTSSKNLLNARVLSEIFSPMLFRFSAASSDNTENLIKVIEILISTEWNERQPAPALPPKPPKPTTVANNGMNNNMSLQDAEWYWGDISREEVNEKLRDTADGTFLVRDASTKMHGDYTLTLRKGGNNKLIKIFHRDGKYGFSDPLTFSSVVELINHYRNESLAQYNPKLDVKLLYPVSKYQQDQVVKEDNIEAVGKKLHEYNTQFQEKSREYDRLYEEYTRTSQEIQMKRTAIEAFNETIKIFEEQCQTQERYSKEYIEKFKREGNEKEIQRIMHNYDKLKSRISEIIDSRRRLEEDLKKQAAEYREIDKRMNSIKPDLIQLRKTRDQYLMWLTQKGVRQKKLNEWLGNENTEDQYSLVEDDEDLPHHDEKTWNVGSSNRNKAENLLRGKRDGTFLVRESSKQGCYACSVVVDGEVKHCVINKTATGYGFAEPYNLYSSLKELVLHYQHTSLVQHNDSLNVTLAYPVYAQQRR

MEK1 and PI3K activities [4] = assay: In vivo MEK1 and PI3K inhibition in subcutaneous colon tumor CT26 (Western blot); design: species or system mice; details: subcutaneous CT26, 400 mg/kg oral gavage, 2 hours
Description: Mice bearing subcutaneous colon tumors were treated with either vehicle or 400 mg/kg of ST-162 or ST-168 by oral gavage at 2 hours prior to sacrifice. The known MEK inhibitor 901 and PI3K inhibitors were also evaluated in this study.

[5] = test system: A375 (melanoma), D54 (glioma), CT26 colorectal cancer, A2058 (melanoma) cell lines; assay: Concurrent inhibition in tumor cell lines (multifunctional inhibitors); assay type: cell-based
Excerpt: The synthesis of another series of single entity, multifunctional inhibitors achieved by covalent linking of structural analogs of a PI3K inhibitor mTOR inhibitor, and an MEK inhibitor is also disclosed.

MEK1 = molecular target: T3, MEK1 (Homo sapiens, UniProt Q02750); assay: In vitro MEK1 inhibition assay (Kinase-Glo luminescent kinase assay); assay type: biochemical; details: average of three experiments each conducted in duplicate
T3 construct: purchased Sigma-Aldrich
Description: In Vitro MEK1 Inhibition Assays.
In vitro MEK1 inhibition activity of inhibitor analogs were determined using Kinase-Glo luminescent kinase assay kits from Promega (WI, USA) per manufacturer's instructions. […] Briefly, series of compound dilutions were added in 96-well plates, followed by MEK1, Erk2, and ATP solutions. Kinase reactions were run at 30° C. for 30 minutes. Equal volumes of Kinase-Glo solution were then added, and reactions were incubated at room temperature for a further 30 minutes. Bioluminescence signals were acquired with an Envision multilabel reader from Perkin Elmer. Assays were conducted in triplicate with various inhibitor concentrations each run in duplicate. IC50 data were calculated using GraphPad Prism software (version 5.0, La Jolla, Calif.).

MEK1 and PI3K activities [6] = assay: In vivo MEK1 and PI3K inhibition in intracerebral D54 glioma bearing mice (Western blot); details: intracerebral D54, 400 mg/kg oral gavage, 2 hours
Description: Mice bearing i.c. D54 tumors were treated with either vehicle or 400 mg/kg of ST-162 or ST-168 by oral gavage at 2 hours prior to sacrifice.

[7] = test system: intracerebral D54 glioma tumors; assay: Survival of mice bearing intracerebral D54 tumors; assay type: in vivo; details: intracerebral D54, 400 mg/kg oral gavage, vs vehicle control; listed as ST-162
Description: (§1) In preliminary studies, several mouse models were tested for therapeutic efficacy using oral administration of ST-162. Athymic nude Foxn1 nu mice were used to evaluate oncogenic target modulation activity in vivo. Mice bearing intracerebral D54 tumors, subcutaneous colon tumors (CT26) and subcutaneous melanoma (A375 and A2058) tumors were treated with either vehicle control or 400 mg/kg of compound ST-162 by oral gavage for 14-30+ days.

D54 glioma cells = assay: Cell viability, AlamarBlue assay; assay type: cell-based, human; details: dose dependence
[8] = test system: pErk1/2 in A549 and D54 cells; assay: Cellular MEK1 inhibition, Western blot of pErk1/2 in cultured tumor cells; assay type: cell-based, human; details: A549 and D54 cell lines, 1 hour
Description: Western Blot Analysis. […] Cells were washed with phosphatebuffered saline (PBS) and lysed with NP-40 lysis buffer (1% NP40, 150 mM NaCl, and 25 mM Tris, pH 8.0) supplemented with protease inhibitors (Complete protease inhibitor cocktail, Roche, Basel, Switzerland) and phosphatase inhibitors (PhosSTOP, Roche, Basel, Switzerland). […] Proteins were transferred to 0.2 μm nitrocellulose membranes (Invitrogen, CA). Membranes were incubated overnight at 4° C. with primary antibodies after blocking, followed by incubation with appropriate horseradish peroxidase (HRP) conjugated secondary antibody at room temperature for 1 hour. ECL-Plus was used to detect the activity of peroxidase according to the manufacturer's protocol (Amersham Pharmacia, Uppsala, Sweden).

PI3K = PI3K (Homo sapiens, UniProt P42336); assay: In vitro PI3K inhibition assay (Adapta TR-FRET); assay type: biochemical; details: average of three experiments each conducted in duplicate
Description: In Vitro PI3K Inhibition Assays.
Quantitation of PI3K lipid kinase activity was carried out by Life Technologies (Madison, Wis.) with purified enzyme using the fluorescence-based Adapta TR-FRET assay protocol. Assays were conducted in triplicate with various inhibitor concentrations (0.1 nM to 10 μM).

colon tumors CT-26 = assay: Tumor growth of subcutaneous colon tumors; assay type: in vivo, mice; details: for tumor growth: subcutaneous CT26, 400 mg/kg oral gavage, 14 days, vs vehicle
Description: as §1
In FIG. 10, compound ST-162 was administered for 14 days beginning when subcutaneous colon tumors CT-26 were measurable by caliper and MRI and tumor volumes were measured over time and compared to vehicle controls.
In FIG. 11, ST-162 was administered for 14 days beginning when subcutaneous colon tumors CT-26 were measurable by caliper and MRI and tumor volumes were measured over time and compared to vehicle controls. At day 14, two tumors were removed and compared for size and weight.

MEK1 and PI3K activities [9] = assay: In vivo MEK1 and PI3K inhibition in subcutaneous melanoma tumors A357 and A2058 (Western blot); design: species or system mice; details: s.q. melanoma A357 and A2058, 400 mg/kg oral gavage, 2 hours
Description: Mice bearing s.q. melanoma tumors were treated with either vehicle or 400 mg/kg of ST-162 or ST-168 by oral gavage at 2 hours prior to sacrifice.

A549 lung tumor cells = assay: Cell viability, AlamarBlue assay; assay type: cell-based, human; details: dose dependence
PI3Kα = molecular target: T4, PI3Kα (Homo sapiens, UniProt P42336); assay: PI3K subtype enzyme inhibition; assay type: biochemical
T4 construct: purchased Life Technologies (assay run by the vendor)
T4 sequence (P42336 whole entry): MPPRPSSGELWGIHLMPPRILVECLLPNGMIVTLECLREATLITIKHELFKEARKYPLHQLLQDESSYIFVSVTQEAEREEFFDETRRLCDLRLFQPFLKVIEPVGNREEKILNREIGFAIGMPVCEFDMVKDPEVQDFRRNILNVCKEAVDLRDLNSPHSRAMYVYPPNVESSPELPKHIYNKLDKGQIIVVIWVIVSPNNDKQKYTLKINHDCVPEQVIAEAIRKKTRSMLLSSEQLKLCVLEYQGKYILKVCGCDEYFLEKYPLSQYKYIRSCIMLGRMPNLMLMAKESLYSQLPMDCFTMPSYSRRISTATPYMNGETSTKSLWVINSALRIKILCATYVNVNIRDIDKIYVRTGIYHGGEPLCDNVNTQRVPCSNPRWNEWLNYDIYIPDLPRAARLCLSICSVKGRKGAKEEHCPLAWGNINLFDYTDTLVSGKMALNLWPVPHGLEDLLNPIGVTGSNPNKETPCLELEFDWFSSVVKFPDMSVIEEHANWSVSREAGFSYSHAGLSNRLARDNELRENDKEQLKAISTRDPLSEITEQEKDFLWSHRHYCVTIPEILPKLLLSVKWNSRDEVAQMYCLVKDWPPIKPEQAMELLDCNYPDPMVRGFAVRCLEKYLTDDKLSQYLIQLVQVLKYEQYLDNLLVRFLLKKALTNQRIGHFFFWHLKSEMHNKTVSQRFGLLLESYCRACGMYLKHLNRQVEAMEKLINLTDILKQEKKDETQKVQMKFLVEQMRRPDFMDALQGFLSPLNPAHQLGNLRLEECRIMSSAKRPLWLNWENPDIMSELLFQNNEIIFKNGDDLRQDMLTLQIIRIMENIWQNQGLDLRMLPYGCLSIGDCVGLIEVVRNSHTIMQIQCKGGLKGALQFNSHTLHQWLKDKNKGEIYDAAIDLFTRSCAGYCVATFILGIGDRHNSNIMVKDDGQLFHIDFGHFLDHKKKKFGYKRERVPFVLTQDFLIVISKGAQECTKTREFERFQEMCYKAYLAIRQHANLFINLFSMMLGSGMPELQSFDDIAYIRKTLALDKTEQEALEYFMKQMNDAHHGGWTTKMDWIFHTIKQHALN
T4 sequence (P27986 whole entry partner): as the sequence (P27986 whole entry partner) above

[10] = test system: melanoma tumors A2058 and A357; assay: Tumor growth of subcutaneous melanoma tumors; assay type: in vivo, mice; details: 400 mg/kg oral gavage, 14 days, vs vehicle, listed as ST-162, 400 mg/kg
Description: as §1
In FIG. 9, compound ST-162 was administered for 14 days beginning when subcutaneous melanoma tumors A2058 and A357 were measurable by caliper and MRI and tumor volumes were measured over time and compared to vehicle controls.

ERK1/2 phosphorylation = assay: In vivo MEK1 inhibition in flank D54 and A549 tumor bearing mice (Western blot)
Description: Four athymic nude Foxn1nu mice were used to evaluate oncogenic target modulation activity in vivo.
In Vivo Evaluation of Inhibitor Efficacy.
Each injectate contained a total volume of 200 μL of cell suspension in 50% RPMI medium mixed with 50% BD Matrigel basement membrane matrix (Becton, Dickinson and Company, East Rutherford, N.J.). […] Tumor tissues were collected from both vehicle and drug-treated groups and subjected to Western blot analysis as previously described.

A375 melanoma tumor = assay: In vivo efficacy in A375 melanoma tumor bearing mice
Excerpt: (§2) The synthesis of another series of single entity, multifunctional inhibitors achieved by covalent linking of structural analogs of a PI3K inhibitor mTOR inhibitor, and an MEK inhibitor is also disclosed. […] […].

PI3Kδ = molecular target: T5, PI3Kδ (Homo sapiens, UniProt O00329); assay: PI3K subtype enzyme inhibition; assay type: biochemical
T5 construct: purchased Life Technologies (assay run by the vendor)
T5 sequence (O00329 whole entry): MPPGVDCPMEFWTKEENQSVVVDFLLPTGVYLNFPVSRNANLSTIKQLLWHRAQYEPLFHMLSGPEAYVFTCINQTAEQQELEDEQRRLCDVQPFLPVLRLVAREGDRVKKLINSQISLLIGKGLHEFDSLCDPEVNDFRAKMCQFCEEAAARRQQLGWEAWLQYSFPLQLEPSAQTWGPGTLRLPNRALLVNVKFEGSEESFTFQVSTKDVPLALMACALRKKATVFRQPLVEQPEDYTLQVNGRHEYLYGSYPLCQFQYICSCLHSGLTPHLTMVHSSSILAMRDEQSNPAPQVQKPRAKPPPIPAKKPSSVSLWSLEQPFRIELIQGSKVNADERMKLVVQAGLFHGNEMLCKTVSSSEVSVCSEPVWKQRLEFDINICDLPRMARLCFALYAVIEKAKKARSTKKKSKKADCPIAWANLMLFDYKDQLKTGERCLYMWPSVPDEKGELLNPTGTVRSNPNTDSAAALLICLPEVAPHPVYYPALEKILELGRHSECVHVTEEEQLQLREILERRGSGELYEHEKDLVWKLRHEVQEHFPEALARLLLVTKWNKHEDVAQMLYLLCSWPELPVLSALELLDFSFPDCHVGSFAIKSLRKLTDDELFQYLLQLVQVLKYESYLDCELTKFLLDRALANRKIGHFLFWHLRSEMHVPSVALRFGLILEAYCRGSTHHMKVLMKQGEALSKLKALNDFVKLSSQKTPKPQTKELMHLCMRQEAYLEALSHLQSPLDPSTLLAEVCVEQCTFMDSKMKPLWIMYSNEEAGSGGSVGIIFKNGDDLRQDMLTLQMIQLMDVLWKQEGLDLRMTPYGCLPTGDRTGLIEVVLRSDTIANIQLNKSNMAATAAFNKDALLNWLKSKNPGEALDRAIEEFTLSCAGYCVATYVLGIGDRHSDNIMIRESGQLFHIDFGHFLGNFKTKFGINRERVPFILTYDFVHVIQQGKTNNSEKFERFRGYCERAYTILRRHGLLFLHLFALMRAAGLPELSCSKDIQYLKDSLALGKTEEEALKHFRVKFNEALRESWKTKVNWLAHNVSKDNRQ
T5 sequence (P27986 whole entry partner): as the sequence (P27986 whole entry partner) above

mTOR/MEK1/PI3K = assay: In vivo inhibition in A375 flank tumor (Western blot); design: species or system mouse; details: oral, 2 hour postadministration
Excerpt: as §2

[11] = D54 and A549 tumors, compound 14: 375 mg/kg oral gavage, 2 h, 375 mg/kg
[12] = oral administration, 2 h postadministration, Western blot
[13] = mean ± SEM, read-out: PI3K Subtype Inhibition Activity PI3Kβ
[14] = read-out: PI3K Subtype Enzyme Inhibition Data IC50 PI3Kβ
[15] = mean ± SEM, read-out: PI3K Subtype Inhibition Activity PI3Kα
[16] = mean ± SEM, read-out: PI3K Subtype Inhibition Activity PI3Kγ
[17] = read-out: PI3K Subtype Enzyme Inhibition Data IC50 PI3Kγ

COc1ncc(-c2ccc3nccc(-c4ccnnc4)c3c2)cc1NS(=O)(=O)c1ccc(F)cc1F [GSK 458, reference compound]
IC50 (PI3Kγ [1]): 0.06 nM | IC50 (PI3Kγ [2]; ST-182 and intermediates, read-out: PI3Kγ IC50): 0.83 ± 0.1 nM

O=C(NOCCOCCOCCOCCN1CCN(c2nc(N3CCOCC3)nc(-n3c(C(F)F)nc4ccccc43)n2)CC1)c1ccc(F)c(F)c1Nc1ccc(I)cc1F [Compound 14]
PI3K inhibition in cells ([3]; A549 and D54 cell lines, Western blot): inhibition was demonstrated; also recorded: most pronounced | PI3K activity indicated by level of pAKT ([3]; cultured A549 cells, Western blot vs DMSO): high potency in inhibiting PI3K activity | phosphorylation of Akt (PI3K activity) in excised tumor tissue (Akt phosphorylation; [11]): inhibited phosphorylation; also recorded: significant inhibition | inhibition of tumor Akt phosphorylation (Akt phosphorylation; [12]): 67% | IC50 (PI3Kβ; [13]): 4070 ± 290 nM | IC50 (PI3Kβ; [14]): 4070 ± 290 nM | MEK1 and PI3K activities in tumor relative to vehicle control (MEK1 and PI3K activities [4]): successfully modulated MEK1 and PI3K activities | Concurrent inhibition in tumor cell lines [5]: Concurrent inhibition was demonstrated | IC50 (MEK1): 0.15 nM | MEK1 and PI3K activities in tumor relative to vehicle control (MEK1 and PI3K activities [6]): successfully modulated both MEK1 and PI3K activities | overall survival [7]: improved animal survival; also recorded: significant improvement (P=0.0054) | cell viability (D54 glioma cells): as effective as the combination of ZSTK474 and PD0325901 | MEK inhibition in cells [8]: inhibition was demonstrated; also recorded: most pronounced | IC50 (PI3K): 191 to 341 nM | size of excised tumors (colon tumors CT-26; CT-26, day 14, vs vehicle control tumors): smaller in volume | tumor growth (colon tumors CT-26; listed as MV4-162): significant reduction of tumor growth | tumor growth (colon tumors CT-26; listed as ST-162): significant tumor growth delays | MEK1 and PI3K activities in tumor relative to vehicle control (MEK1 and PI3K activities [9]): successfully modulated both MEK1 and PI3K activities | cell viability (A549 lung tumor cells): as effective as the combination of ZSTK474 and PD0325901 | IC50 (PI3Kα; [15]): 467 ± 9 nM | tumor growth [10]: significant tumor growth delays; also recorded: significant reduction of tumor growth | IC50 (PI3Kγ [2]; [16]): 5800 ± 511 nM | IC50 (PI3Kγ [2]; [17]): 5800 ± 511 nM | phosphorylation of ERK1/2 (MEK1 activity) in excised tumor tissue (ERK1/2 phosphorylation; [11]): inhibited phosphorylation; also recorded: significant inhibition | inhibition of tumor ERK1/2 phosphorylation (ERK1/2 phosphorylation; [12]): 95%

O=C(NOCCOCCOCCOCCC(=O)N1CCN(c2nc(N3CCOCC3)nc(-n3c(C(F)F)nc4ccccc43)n2)CC1)c1ccc(F)c(F)c1Nc1ccc(I)cc1F [ST-168]
IC50 (PI3Kβ; [13]): 1480 ± 377 nM | IC50 (PI3Kβ; [14]): 1480 ± 377 nM | MEK1 and PI3K activities in tumor relative to vehicle control (MEK1 and PI3K activities [4]): successfully modulated MEK1 and PI3K activities | Concurrent inhibition in tumor cell lines [5]: Concurrent inhibition was demonstrated | reduction in tumor size over vehicle control (A375 melanoma tumor; A375, 400 mg/kg daily oral, 35 days post-treatment initiation): > 6 fold | lifespan (A375 melanoma tumor; A375 tumor bearing mice, 400 mg/kg daily oral): significantly increased lifespan | side effects (such as loss in body weight) (A375 melanoma tumor; long term dosage, 40 daily oral doses, 400 mg/kg): no detectable side effects | MEK1 and PI3K activities in tumor relative to vehicle control (MEK1 and PI3K activities [6]): successfully modulated both MEK1 and PI3K activities | IC50 (PI3Kδ; mean ± SEM, read-out: PI3K Subtype Inhibition Activity PI3Kδ): 41.7 ± 2.1 nM | IC50 (PI3Kδ; read-out: PI3K Subtype Enzyme Inhibition Data IC50 PI3Kδ): 41.7 ± 2.1 nM | inhibition of mTOR/MEK1/PI3K in tumor tissue (mTOR/MEK1/PI3K): combined inhibition of mTOR/MEK1/PI3K was achieved | MEK1 and PI3K activities in tumor relative to vehicle control (MEK1 and PI3K activities [9]): successfully modulated both MEK1 and PI3K activities | IC50 (PI3Kα; [15]): 69.2 ± 2.2 nM | IC50 (PI3Kα; read-out: PI3K Subtype Enzyme Inhibition Data IC50 PI3Kα): 69.2 ± 2.2 nM | IC50 (PI3Kγ [2]; [16]): 2290 ± 241 nM | IC50 (PI3Kγ [2]; [17]): 2290 ± 241 nM
